Source: the supplement of paper PMC5770543
± gives the standard deviation.

Experiments:
[1] = tested on: Toxoplasma gondii RH tachyzoites; assay: % growth inhibition vs DMSO (48 h luciferase); higher = more inhibition; conditions: 10 µM
[2] = tested on: Toxoplasma gondii RH tachyzoites; assay: median egress time after A23187 ionophore; higher = stronger egress inhibition; conditions: 10 µM; pretreatment time: 24 h
Description: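 T. gondii RH tachyzoites expressing firefly luciferase were grown in HFF monolayers for 48 h with compound. % growth inhibition at 10 µM and EC50 (2-fold dilutions from 10 µM) were read by luminescence relative to 1% DMSO; EC50 listed as 10 (not determined, <80% inhibition) is left out. Plaque assays: 50 tachyzoites per well with 10 µM compound for 8-10 days, giving plaque count and area by crystal violet/ImageJ. Egress: median time to egress after 1 µM A23187 ionophore following 24 h of 10 µM compound (DMSO ~1.8 min; >10 = no egress within 10 min).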

[3] = tested on: Toxoplasma gondii RH tachyzoites; assay: plaque count per well; higher = less inhibition; extreme values may be limits of the assay; conditions: 10 µM; 8-10 days
Outline: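 Fifty T. gondii RH tachyzoites were added to each well of six-well plates holding confluent HFF monolayers preseeded with compound at 10 µM. Plates were left undisturbed for 8 to 10 days, then fixed with methanol and stained with crystal violet. Plaques were imaged and counted per well with ImageJ, with untreated and 1% DMSO-treated wells as controls. Plaque count per well reflects delayed-death inhibition of parasite growth.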

[4] = tested on: Plasmodium falciparum 3D7; assay: EC50 growth inhibition (60 h, SYBR Green); conditions: stage: ring-stage start
[5] = tested on: Plasmodium falciparum 3D7; assay: % inhibition of schizont-to-ring transition vs DMSO; higher = more inhibition
Outline: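 Tightly synchronised P. falciparum schizonts (about 40–42 hours post-invasion, 1% parasitemia, 2.5% hematocrit, AlbuMAX-supplemented RPMI) were exposed to compound at 1, 3 or 10 µM, with vehicle and positive controls. Cells were glutaraldehyde-fixed, Triton-permeabilised, stained with Hoechst 33342 and counted by flow cytometry (at least 100,000 events). Schizont-to-ring transition inhibition is new ring formation relative to vehicle controls, averaged over three experiments.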

[6] = target: Toxoplasma gondii RH tachyzoites; assay: EC50 growth inhibition (48 h luciferase)
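For % growth inhibition vs DMSO (48 h luciferase) in this document: tested in triplicate wells of 96-well plates on confluent HFF monolayers, with 1% DMSO wells as negative control in four replicates.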

SMILES | % growth inhibition [1] [%] | median egress time [2] [min] | plaque count per well [3] | EC50 growth inhibition [4] [µM] | % inhibition of schizont-to-ring transition ([5]; 1 µM) [%] | % inhibition of schizont-to-ring transition ([5]; 3 µM) [%] | % inhibition of schizont-to-ring transition ([5]; 10 µM) [%] | EC50 growth inhibition [6] [µM]
O=C(NC1CCCCC1)C(c1cccs1)N(CCc1ccccc1)C(=O)c1ccco1 (configuration not stated) | < 0 | 2.06 | 39 | 1.72 | 38.6 | 42 | 46.4 | 
CCOc1cc(Cl)c(C(C)NC(=O)c2ccccc2)cc1OCC (configuration not stated) | < 0 | 2.67 | 22 | 1.45 | 46.5 | 78.6 | 76.7 | 
COc1cc(-c2nc(-c3ccccc3)c(-c3ccccc3)[nH]2)cc(OC)c1O | 6.6 ± 11 | 2.93 | 22 | 8.62 | 13.7 | 15.2 | 37.4 | 
CC(=O)Nc1nnc(SCc2c(C)cc(C(C)(C)C)cc2C)s1 | < 0 | 2.4 | 21 |  | 42.7 | 46.5 | 55.4 | 
COc1ccc(C(=O)C(CCC(CNC(C)(C)C)C(=O)c2ccc(OC)cc2)CNC(C)(C)C)cc1 (configuration not stated) | 89.2 ± 2.7 |  | 0 | 1.45 | < 0 | 16.3 | 66.1 | 1.51
COc1ccc2sc(N(Cc3cccnc3)C(=O)c3ccc(C#N)cc3)nc2c1 | < 0 | > 10 | 21 | 6.59 | 35.3 | 39.1 | 51.7 | 
CC(NCc1ccccc1)c1cc(Cl)ccc1O (configuration not stated) | 14.9 ± 6 | 2.27 | 29 | 0.801 | 29.2 | 44.4 | 66.6 | 
Oc1ccccc1CN1CCC2(CCCN(Cc3ccccc3F)C2)C1 (configuration not stated) | < 0 | 2.13 | 26 | 1.14 | 31.4 | 37.7 | 60.6 | 
OC(CNC1CCCCC1)Cn1c2ccc(I)cc2c2cc(I)ccc21 (configuration not stated) | < 0 | 1.33 | 3 | 0.591 | 39.7 | 69 | 73.8 | 
Cc1ccc(C)c(-c2csc(Nc3ccc(C)c(C)c3)n2)c1 | < 0 | 3.2 | 22 |  | 13.5 | 16 | 20.4 | 
COc1ccc(C2NCCc3c2[nH]c2ccccc32)cc1CN1CCN(c2ccc(F)cc2)CC1 (configuration not stated) | 99.96 ± 0.41 |  |  | 0.468 | 26.9 | 62.9 | 77.3 | 4.88
CSC1=NC(=Nc2c(C)cccc2C)C2(CCC(C(C)(C)C)CC2)N1c1ccc(Cl)cc1 (configuration not stated) | 99.94 ± 0.22 |  |  | 0.869 | 12.4 | 26.3 | 49.9 | 0.775
CC(C)(C)C(=O)Nc1ccc(C(=O)Nc2cccc(-c3nc4ccccc4[nH]3)c2)cc1 | 88.4 ± 1.2 |  |  | 1.82 | 22.8 | 32.4 | 56.2 | 2.08
COCCNC(=O)c1ccc(OC2CCN(Cc3ccc(F)c(F)c3)CC2)c(Cl)c1 | 97.36 ± 0.96 |  |  | 1.25 | 10.5 | 23.7 | 52.4 | 0.27
CC(C)(C)CC(C)(C)NCC(O)COc1ccc(Cl)cc1Cl (configuration not stated) | 99.763 ± 0.02 |  |  | 0.576 | 22.6 | 40.4 | 78.1 | 2.05
O=C(Nc1ccc(N2CCCCC2)c(Cl)c1)c1ccc(Br)o1 | 82.4 ± 6.4 |  |  | 0.812 | 29.7 | 39.7 | 53 | 7.4
CCOC(=O)c1cnc2ccc(OC)cc2c1NCc1ccccc1 | 97.7 ± 1.4 |  |  | 6.78 | 42 | 45.3 | 59.1 | 1.4
Clc1cc(Br)ccc1-c1ccc(CNCC2CCNCC2)o1 | 99.53 ± 0.77 |  |  | 0.763 | 46 | 50.9 | 74.4 | 0.207
CCOC(=O)c1cnc2ccc(Cl)cc2c1NCCCN(C)C | 82.2 ± 2.8 |  |  | 1.02 | 0.181 | 23.3 | 54.9 | 2.34
FC(F)(F)c1cccc(Nc2nc3ccccc3nc2Nc2cccc(C(F)(F)F)c2)c1 | 99.49 ± 0.16 |  |  | 6.4 | < 0 | 15.6 | 42.7 | 0.0464
COc1cccc(Nc2nc(NCCO)c3ccccc3n2)c1 | 97.5 ± 1.6 |  |  | 0.456 | 39.7 | 60.8 | 65.6 | 1.09
CCCOCc1cc(CN2CCN(c3cccc(Cl)c3)CC2)c(O)c2ncccc12 | 99.61 ± 0.24 |  |  | 3.79 | 6.74 | 41.8 | 52.5 | 1.5
COCCNCC(O)Cn1c2ccc(Cl)cc2c2cc(Cl)ccc21 (configuration not stated) | 99.95 ± 0.13 |  |  | 0.7 | 5.35 | 32.1 | 67.1 | 6.29
Cc1ccccc1OCCSc1nc2ccc(NC(=O)c3cccs3)cc2s1 | 99.844 ± 0.082 |  |  | 3.73 | 10.7 | 28.6 | 55.5 | 1.16
COc1ccccc1NC1=C(N2CCCCC2)C(=O)c2ccccc2C1=O | 90.3 ± 3.8 |  |  | 0.0359 | 38.5 | 61.8 | 64.7 | 4.95
Cc1ccc2nc(C)cc(Nc3cccc(C(F)(F)F)c3)c2c1 | 99.29 ± 0.18 |  |  | 0.894 | 2.29 | 31.8 | 62.9 | 0.465
OC(CNCc1ccccc1)Cn1c2ccccc2c2ccccc21 (configuration not stated) | 48.3 ± 2 |  |  | 2.2 | 37.8 | 43 | 65.5 | 0.286
COc1cc(-c2nc(-c3ccc(Sc4ccccc4)cc3)c(-c3ccccc3)[nH]2)cc(OC)c1O | 98.59 ± 0.34 |  |  | 0.449 | < 0 | < 0 | 45.4 | 1.32
COc1cc(C(=O)Nc2ccc(-c3nc4ccccc4[nH]3)cc2)cc(OC)c1OC | 91.42 ± 0.58 |  |  | 0.788 | < 0 | 9.26 | 43.1 | 4.73
